According to patent US11970498B2, “CDK2 inhibitors” (BLUEPRINT MEDICINES CORPORATION, priority 2021, dated 2024):

Assays:
CDK2/Cyclin E = CDK2/Cyclin E (Homo sapiens, UniProt P24941); experiment: CDK2/Cyclin E biochemical phosphorylation assay (Caliper mobility shift); settings: apparent IC50; 1.0 mM ATP or ATP Km; 1.25 nM enzyme; 25° C.; read-out: CDK2/cyclin E1 IC50
In short: (§1)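 7.5 µM 5-FAM-QSPKKG-CONH2 peptide phosphorylated by CDK2/Cyclin E (1.25 nM) or GST-CDK1/Cyclin B1 (1.5 nM) at 1.0 mM ATP or ATP Km, in HEPES pH 7.5, MgCl2, Brij-35, DTT, 1% DMSO, 25 °C to 10–20% conversion. EDTA stop; Caliper mobility-shift readout; apparent IC50 from percent activity vs log concentration.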

CDK1/Cyclin B1, GST-tag = biological target: T1, CDK1/Cyclin B1, GST-tag (Homo sapiens, UniProt P06493); experiment: CDK1/Cyclin B1 biochemical phosphorylation assay (Caliper mobility shift); settings: apparent IC50; 1.0 mM ATP or ATP Km; 1.5 nM enzyme; 25° C.
T1 construct: GST
In short: as §1

T1 sequence (P06493 whole entry): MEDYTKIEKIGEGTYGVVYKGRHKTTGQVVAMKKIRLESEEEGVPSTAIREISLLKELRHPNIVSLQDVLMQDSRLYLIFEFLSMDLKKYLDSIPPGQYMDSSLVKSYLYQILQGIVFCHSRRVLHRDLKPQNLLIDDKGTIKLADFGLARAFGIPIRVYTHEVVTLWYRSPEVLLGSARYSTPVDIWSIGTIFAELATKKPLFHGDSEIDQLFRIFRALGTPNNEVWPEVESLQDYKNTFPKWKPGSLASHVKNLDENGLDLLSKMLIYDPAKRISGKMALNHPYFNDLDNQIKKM
T1 sequence (P14635 whole entry partner): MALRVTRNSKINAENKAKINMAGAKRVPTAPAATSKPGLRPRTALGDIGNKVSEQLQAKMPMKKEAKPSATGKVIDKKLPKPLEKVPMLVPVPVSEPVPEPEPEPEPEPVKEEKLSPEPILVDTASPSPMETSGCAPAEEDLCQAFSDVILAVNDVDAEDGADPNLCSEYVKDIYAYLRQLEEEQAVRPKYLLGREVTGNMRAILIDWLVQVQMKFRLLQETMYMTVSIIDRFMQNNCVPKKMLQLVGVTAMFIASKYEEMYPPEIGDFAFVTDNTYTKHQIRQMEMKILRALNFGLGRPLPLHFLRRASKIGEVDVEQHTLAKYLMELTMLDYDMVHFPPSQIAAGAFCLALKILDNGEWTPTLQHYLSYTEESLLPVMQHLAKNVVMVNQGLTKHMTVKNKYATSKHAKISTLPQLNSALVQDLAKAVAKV

SMILES	IC50 (CDK2/Cyclin E)	IC50 (CDK1/Cyclin B1, GST-tag)
COc1cc(Nc2cnc3cnn([C@@H](C(F)F)C4CCOCC4)c3n2)n[nH]1 (single isomer, unassigned) [Example 192, (R)-1-(2,2-difluoro-1-(tetrahydro-2H-pyran-4-yl)ethyl)-N-(5-methoxy-1H-pyrazol-3-yl)-1H-pyrazolo[3,4-b]pyrazin-6-amine or (S)-1-(2,2-difluoro-1-(tetrahydro-2H-pyran-4-yl)ethyl)-N-(5-methoxy-1H-pyrazol-3-yl)-1H-pyrazolo[3,4-b]pyrazin-6-amine]	> 0.1 µM	≥ 0.5 µM
COc1cc(Nc2cnc3cnn(CC4CC4)c3n2)n[nH]1 [Example 69, 1-(cyclopropylmethyl)-N-(5-methoxy-1H-pyrazol-3-yl)-1H-pyrazolo[3,4-b]pyrazin-6-amine]	0.03 to 0.1 µM	≥ 0.5 µM
FC(F)Oc1cc(Nc2cnc3cnn(C[C@H]4CCCO4)c3n2)n[nH]1 [Example 113, (R)-N-(5-(difluoromethoxy)-1H-pyrazol-3-yl)-1-((tetrahydrofuran-2-yl)methyl)-1H-pyrazolo[3,4-b]pyrazin-6-amine]	0.03 to 0.1 µM	≥ 0.5 µM
FC(F)Oc1cc(Nc2cnc3cnn(C[C@H]4CCCCO4)c3n2)n[nH]1 [Example 107, (R)-N-(5-(difluoromethoxy)-1H-pyrazol-3-yl)-1-((tetrahydro-2H-pyran-2-yl)methyl)-1H-pyrazolo[3,4-b]pyrazin-6-amine]	0.02 to 0.03 µM	≥ 0.5 µM
COc1cc(Nc2cnc3cnn(CC4C5COCC54)c3n2)n[nH]1 (stereo not shown) [Example 138, 1-((3-oxabicyclo[3.1.0]hexan-6-yl)methyl)-N-(5-methoxy-1H-pyrazol-3-yl)-1H-pyrazolo[3,4-b]pyrazin-6-amine]	0.02 to 0.03 µM	≥ 0.5 µM

Next, values leading:

IC50 (CDK2/Cyclin E)	IC50 (CDK1/Cyclin B1, GST-tag)	SMILES
> 0.1 µM	≥ 0.5 µM	C[C@@H](c1cc(Cl)ccn1)n1ncc2ncc(Nc3cc(OC(F)F)[nH]n3)nc21 (single isomer, unassigned) [Example 189, (R)-1-(1-(4-chloropyridin-2-yl)ethyl)-N-(5-(difluoromethoxy)-1H-pyrazol-3-yl)-1H-pyrazolo[3,4-b]pyrazin-6-amine or (S)-1-(1-(4-chloropyridin-2-yl)ethyl)-N-(5-(difluoromethoxy)-1H-pyrazol-3-yl)-1H-pyrazolo[3,4-b]pyrazin-6-amine]
0.02 to 0.03 µM	≥ 0.5 µM	C[C@H](c1cccnc1)n1ncc2ncc(Nc3cc(OC(F)F)[nH]n3)nc21 [Example 91, (R)-N-(5-(difluoromethoxy)-1H-pyrazol-3-yl)-1-(1-(pyridin-3-yl)ethyl)-1H-pyrazolo[3,4-b]pyrazin-6-amine]
> 0.1 µM	≥ 0.5 µM	C[C@@H](c1cnccc1F)n1ncc2ncc(Nc3cc(OC(F)F)[nH]n3)nc21 (single isomer, unassigned) [Example 174, (R)-N-(5-(difluoromethoxy)-1H-pyrazol-3-yl)-1-(1-(4-fluoropyridin-3-yl)ethyl)-1H-pyrazolo[3,4-b]pyrazin-6-amine or (S)-N-(5-(difluoromethoxy)-1H-pyrazol-3-yl)-1-(1-(4-fluoropyridin-3-yl)ethyl)-1H-pyrazolo[3,4-b]pyrazin-6-amine]
≤ 0.01 µM	0.1 to 0.5 µM	FC(F)Oc1cc(Nc2cnc3cnn(C[C@@H]4CC45CC5)c3n2)n[nH]1 (racemic) [Example 109, (R)-N-(5-(difluoromethoxy)-1H-pyrazol-3-yl)-1-(spiro[2.2]pentan-1-ylmethyl)-1H-pyrazolo[3,4-b]pyrazin-6-amine and (S)-N-(5-(difluoromethoxy)-1H-pyrazol-3-yl)-1-(spiro[2.2]pentan-1-ylmethyl)-1H-pyrazolo[3,4-b]pyrazin-6-amine]
≤ 0.01 µM	< 0.1 µM	C[C@@H](c1cccnc1F)n1ncc2ncc(Nc3cc(OC(F)F)[nH]n3)nc21 [Example 8, (S)—N-(5-(difluoromethoxy)-1H-pyrazol-3-yl)-1-(1-(2-fluoropyridin-3-yl)ethyl)-1H-pyrazolo[3,4-b]pyrazin-6-amine]
0.01 to 0.02 µM	≥ 0.5 µM	C[C@@H]([C@@H]1COCCO1)n1ncc2ncc(Nc3cc(OC(F)F)[nH]n3)nc21 (single isomer, unassigned) [Example 213]
